One series concerns KIM1, LCN2, TIMP1, SPP1. Kind of series: Biomarkers of renal injury by RTPCR after IV injection. The settings on record: mouse, in vivo. More on the design: species or system mice.
The subject of the next series is Candida albicans SN250. Kind of series: Mouse model of invasive candidiasis (kidney CFU). The settings on record: for Mouse candidiasis model: 5 mpk.
A further series relates to CD-1 mice. Format: in vivo. The settings on record: for Mouse single IV injection: mortality: 40 mpk. Here is the method:
Procedure: The experiment was performed using the commercial Fungizone and Ambisome. Compound BA was directly used after purification without any special treatment. […] . Female CD-1 mice were (3 per group; body weight 30 g each) injected with the drugs/compounds and monitored for 24 h for death or distress signs.
Compound BA was directly used after purification without any special treatment. […] . Female CD-1 mice were (3 per group; body weight 30 g each) injected with the drugs/compounds and monitored for 24 h for death or distress signs.

A short description of series [1]: Liver Microsome stability (In Vitro Metabolism). Format: in vitro ADME. To be noted: for Remaining (T = NCF60 min): no cofactor 60 min. The procedure:
Working Compound solution: 10 uM in 50 mM potassium phosphate buffer with 9% MeOH and 1% DMSO
Microsome solution: working concentration 0.625 mg/ml
Stopping solution: Cold ACN with 200 ng/ml Tolbutamide and 200 ng/ml Labetalol (4° C.)
Procedure: In the well plates (T5, T10, T20, T30, T60, NCF60 (no cofactor 60)) 10 uL of the compound/control working solution was added (except T0 and matric blank) followed by microsome solution (80 uL) and the mixture was incubated at 37 C for about 10 mins. A solution of potassium phosphate (10 ul of 50 mM) was added to NCF60 well, incubated at 37 C and time counting started. After prewarming 10 ul of NADPH regenerating solution was added to each plate to start the reaction. At different time point 300 uL/well of stopping solution to terminate the reaction. The sampling plates were shaken for 10 mins and the centrifuged for 20 mins at 4000 rpm. The supernatant was half diluted with ultra pure water and the analyzed using LCMS.

For another series, the system named is Cunninghamella sp. Briefly: MIC against moulds. To be noted: 6 isolates. The series is classed as cell-based.
Another series deals with Scedosporium boydii. Kind of series: MIC against rare moulds resistant to AmB. The series is classed as cell-based. The settings on record: 6 isolates.
Another series has as its system C. albicans SN250. Briefly: MIC. The series is classed as cell-based, Candida albicans.
Series [2] is described as follows: In vivo mouse pharmacokinetics, IV. The arrangement: species or system CD-1 mice. Here is the method:
The experiment was performed using the compounds synthesized in lab and purified by preparative HPLC (>91%). All the compounds were dissolved in D5W (5% dextrose in water) at for IV injection. Female CD-1 mice were (3 per group; body weight approx. 30 g each) injected with the compounds (as per planned dosage) and the blood samples were collected at different time points and the compound content was analysed using the following procedure.
An aliquot of […], IS solution (100 ng/mL Labetalol & 100 ng/mL Tolbutamide in ACN), the mixture was vortex-mixed well and centrifuged at 3900 rpm for 10 min, 4[…]. An aliquot of 90 μL supernatant was transferred to sample plate and mixed with 60 μL water, then the plate was shaken at 800 rpm for 10 min. 15.0 μL supernatant was injected for LC-MS/MS analysis.

A further series deals with A. fumigatus 1163. Kind of series: MIC. The series is classed as cell-based.
A further series has as its system C. glabrata. Briefly: MIC. The series is classed as cell-based.
A further series has as its system C. krusei. Briefly: MIC. Format: cell-based.
In the next series the test system is C. tropicalis. Briefly: MIC. The series is classed as cell-based.

≈ marks a conversion by molar mass, not a printed value.

As to `C[C@@H]1[C@H](O)[C@@H](C)/C=C/C=C/C=C/C=C/C=C/C=C/C=C/[C@H](OC2O[C@H](C)[C@@H](O)[C@H](N)[C@@H]2O)C[C@@H]2O[C@](O)(C[C@@H](O)C[C@@H](O)[C@H](O)CC[C@@H](O)C[C@@H](O)CC(=O)O[C@H]1C)C[C@H](O)[C@H]2C(=O)O` (stereo partly shown) [AmB, Amphotericin B], in the series on KIM1, LCN2, TIMP1, SPP1, the “Renal toxicity biomarkers KIM1, LCN2, TIMP1, SPP1” value is recorded as “elevated”. In addition, in the series with Candida albicans SN250, the Mouse candidiasis model was 5.2 Log (CFU/mL). In the series with CD-1 mice, the “Mouse single IV injection: mortality” value is given as 0/3. The CLint scaled at 1 µM was less than 14 mL/min/kg in series [1] (Dog liver microsomes); less than 8.6 mL/min/kg in series [1] (Human liver microsomes); less than 13 mL/min/kg in series [1] (Monkey liver microsomes); less than 38 mL/min/kg in [1] (Mouse liver microsomes); less than 17 mL/min/kg in [1] (Rat liver microsomes). Also, the “Remaining (T = 60 min)” value in series [1] (Dog liver microsomes) is on record as 106%; in series [1] (Human liver microsomes), 100%; in series [1] (Monkey liver microsomes), 142%; in series [1] (Mouse liver microsomes), 106%; in series [1] (Rat liver microsomes) it was 121%. For the same compound, the half-life at 1 µM in series [1] (Dog liver microsomes), in series [1] (Human liver microsomes), in series [1] (Monkey liver microsomes), in series [1] (Mouse liver microsomes) and in [1] (Rat liver microsomes) was more than 2.42 h in each case. The microsomal CLint at 1 µM in [1] (Dog liver microsomes), in [1] (Human liver microsomes), in series [1] (Monkey liver microsomes), in series [1] (Mouse liver microsomes) and in series [1] (Rat liver microsomes) was less than 9.6 µL/min/mg in each case. Moreover, the “Remaining (T = NCF60 min)” value in series [1] (Dog liver microsomes) was found to be 94.7%; in series [1] (Human liver microsomes), 104%; in series [1] (Monkey liver microsomes) it was 105%; in series [1] (Mouse liver microsomes), 93.1%; in series [1] (Rat liver microsomes) it was 111%. In addition, the MIC in the series with Cunninghamella sp. (Cunninghamella) is 2 µM (≈ 1.85 µg/mL); against Scedosporium boydii (Scedosporium boydii), more than 16 µM.

`CC1C=CC=CC=CC=CC=CC=CC=CC(OC2OC(C)C(O)C(N)C2O)CC2OC(O)(CC(O)CC(O)C(O)CCC(O)CC(O)CC(=O)OC(C)C(C)C1O)CC(O)C2C(=O)NCCO` (stereo not shown) [Compound BA]: the Mouse candidiasis model in the series on Candida albicans SN250 is recorded as 6.3 Log (CFU/mL). Besides, the “Efficacy in mouse model of invasive candidiasis” value with Candida albicans SN250 (in vivo) is on record as “Highly Efficacious”. For the same compound, the “MIC C. albicans SN250” value against C. albicans SN250 is 0.25 µM (≈ 0.242 µg/mL). The “Number of Mice Alive” value in the series on CD-1 mice (40 mg/kg IV, 24 h) is recorded as 3/3. In addition, in the series with CD-1 mice (40 mg/kg IV, 24 h), the “Number of Mice Distress-Fee” value is listed as 3/3. For the same compound, the “Mouse single IV injection: mortality” value in the series on CD-1 mice is reported as 0/4. Moreover, the Tolerability in mice entry in the series with CD-1 mice (IV in D5W) is “Well-Tolerated”. In addition, the CL in [1] (Dog liver microsomes), in [1] (Human liver microsomes), in series [1] (Monkey liver microsomes), in series [1] (Mouse liver microsomes) and in series [1] (Rat liver microsomes) was less than 9.6 µL/min/mg each time. Also, the “Remaining (T = 60 min)” value is 111% in series [1] (Dog liver microsomes); 99.9% in [1] (Human liver microsomes); 108% in [1] (Monkey liver microsomes); 97.7% in series [1] (Mouse liver microsomes); 115% in [1] (Rat liver microsomes). Moreover, the T1/2 in series [1] (Dog liver microsomes), in series [1] (Human liver microsomes), in series [1] (Monkey liver microsomes), in [1] (Mouse liver microsomes) and in [1] (Rat liver microsomes) was more than 2.42 h each time. The “In vivo PK AUC0-inf” value in series [2] (1 mg/kg IV) is 7488] ng*hr/mL; in series [2] (5 mg/kg IV), 26694 ng·h/mL. Also, the “In vivo PK Cl” value came to 2.24 mL/min/kg in series [2] (1 mg/kg IV) and 3.13 mL/min/kg in series [2] (5 mg/kg IV). For the same compound, the “In vivo PK T1/2” value in [2] (1 mg/kg IV) stood at 6.87 h; in [2] (5 mg/kg IV), 8.00 h. In addition, the results for the MIC in the series on Cunninghamella sp. and against Scedosporium boydii were 7.3 µM (≈ 7.06 µg/mL) and more than 16 µM, respectively.

Take `CC1C=CC=CC=CC=CC=CC=CC=CC(OC2OC(C)C(O)C(N)C2O)CC2OC(O)(CC(O)CC(O)C(O)CCC(O)CC(O)CC(=O)OC(C)C(C)C1O)CC(O)C2C(=O)NCCF` (stereo not shown) [Compound BM]: the “MIC A. fumigatus 1163” value against A. fumigatus 1163 was 1000 µM (≈ 969 µg/mL). In addition, the Mouse candidiasis model in the series on Candida albicans SN250 is on record as 5.7 Log (CFU/mL). In addition, the “MIC C. glabrata” value with C. glabrata was 250 µM (≈ 242 µg/mL). The MIC in the series on Cunninghamella sp. is recorded as 6 µM (≈ 5.81 µg/mL); against Scedosporium boydii, more than 16 µM. Moreover, the “MIC C. krusei” value against C. krusei is 1000 µM (≈ 969 µg/mL). Moreover, the “MIC C. tropicalis” value in the series on C. tropicalis worked out at 500 µM (≈ 485 µg/mL).

Source of the values: patent US20230016424A1, “HYBRID AMIDE DERIVATIVES OF AMPHOTERICIN B” (The Board of Trustees of the University of Illinois, priority 2019, published 2023).
